From patent publication US20260242390A1, “TOTAL SYNTHESES OF PORTIMINE A AND ANALOGUES THEREOF AS SMALL MOLECULE MODULATORS OF NMD3” (priority 2023, published 2026)

How the values were obtained:
GBM-F = test: Broad cell line profiling, GBM-F; assay type: cell-based; conditions: Homo sapiens, Glioblastoma Cancer Stem Cell, read-out: PA IC50
Text: • A panel of human and mouse cancer cell types used to assess the breadth of PA activity, including multiple therapy resistant metastatic mesenchymal tumor cell lines and primary glioblastoma patient-derived metastatic stem/tumor initiating cell populations.

Bcl-xl = Bcl-xl protein level in cells; assay type: cell-based, human
Experimental: FIG. 6. Portimine A inhibits S phase entry in Jurkat cells. Portimine A downregulates NMD3 at protein level but upregulates in mRNA level in cells, as well as some essential apoptosis proteins. […] Protein degradation of p53, Mcl1, Bid, Bim, Noxa can be rescued by MG132 or Epoxomicin. (B) NMD3 mRNA increased after PA treatment, but not ePA control compound. Jurkat cells were treated with indicated compounds for 24 hr; Cells were then fixed and perform Propidium Iodide staining.
• 1) Portimine A and its functional analogs show stereo-selective acute toxicity in cancer cells (FIG. 1). […] (B) Structure of portimine related analogs: phenyl-portimine A (Ph-PA, 36) and epi-portimine A (ePA, 38). Structure of fully functionalized portimine A-based epimeric probe pair: portimine A-diazirine-alkyne (PA-DA, 35-2) and epi-portimine A-diazirine-alkyne (ePA-DA, 35-1). (C) Cell viability analysis of portimine A and analogs. Jurkat cells were treated with increasing concentrations of portimine A and analogs for 24 hours. All presented data as mean of biological replicated experiments (n=3). […] Jurkat cells were treated with portimine A or analogs for 12 hours at 10 nM. […] Cell lysates were fractionated by sucrose gradient (5-50%) and each fraction were analyzed by western blot. eIF6 levels increase in 60S subunit fraction and decrease in ribosome-free fractions after PA treatment. […]

C=CC1=C[C@@H]2[C@@H]3O[C@]4(CC[C@H](O4)C(C)C[C@@H](O)C3=O)CC(O)C3=NCC[C@@]32CC1 (some centres unmarked) [PA, portimine A]
IC50 (GBM-F): 2.6 nM | Bcl-xl protein level after treatment (Bcl-xl): downregulated
